In paper PMC10726920 (Cancer Medicine, 2023):

System: patients with acute lymphoblastic leukemia
Assay: Adverse events (CTCAE version 4.0), Phase II study NCI-9775 of sapanisertib monotherapy
Assay type: in vivo
Conditions: treatment-related; 15 evaluable
Protocol: Responders could continue on the same dose or proceed to allogeneic hematopoietic cell transplant if available. Non‐responders (but tolerating drug) could increase their dose to 4 mg orally for 21 days every 28 days (dose level + 1) starting in Cycle 3 and 4 mg orally continuously (dose level + 2) starting in Cycle 5 (if they tolerated dose level + 1). Dose reduction was recommended for toxicity (dose level − 1: 2 mg daily for 21 days every 28 days; dose level − 2: 2 mg daily for 5 days/week for 3 weeks every 4 weeks). […] Intrathecal chemotherapy was allowed per institutional standard policies. In‐home blood glucose monitoring was performed daily to monitor blood sugar (a glucometer was given to every patient on the study). Discontinuation of therapy was recommended for disease progression, severe toxicity, lack of response, proceeding to hematopoietic cell transplant, or prolonged delay of the subsequent cycle (>1 month delay for therapy‐related toxicity or >2 months delay for unrelated toxicity).
The primary endpoint was the proportion of successes, which was estimated by the number of successes divided by the total number of evaluable patients. Secondary endpoints of duration of response (CR or CRi) and overall survival (OS) were evaluated using Kaplan–Meier techniques; the frequency of proceeding to allogeneic stem cell transplant after achieving response and adverse events (AEs), as evaluated using reported the NCI Common Terminology Criteria for Adverse Events (CTCAE) version 4.0, were presented using descriptive statistics.

For CC(C)n1nc(-c2ccc3oc(N)nc3c2)c2c(N)ncnc21 [sapanisertib], the “Aspartate aminotransferase increased grade 2” value was 0 (0) N (%), the “Aspartate aminotransferase increased grade 3” value was 0 (0) N (%) and the “Aspartate aminotransferase increased grade 4” value was 0 (0) N (%). For the same compound, the “Aspartate aminotransferase increased grade 5” value was 0 (0) N (%), the “Bloating grade 1” value was 1 (7) N (%) and the “Bloating grade 2” value was 0 (0) N (%). For the same compound, the “Bloating grade 3” value was 0 (0) N (%), the “Bloating grade 4” value was 0 (0) N (%) and the “Bloating grade 5” value was 0 (0) N (%). The “Blood bilirubin increased grade 1” value was 1 (7) N (%), the “Blood bilirubin increased grade 2” value was 0 (0) N (%) and the “Blood bilirubin increased grade 3” value was 1 (7) N (%). The “Blood bilirubin increased grade 4” value was 0 (0) N (%), the “Blood bilirubin increased grade 5” value was 0 (0) N (%) and the “Confusion grade 1” value was 0 (0) N (%). The “Confusion grade 2” value was 0 (0) N (%), the “Confusion grade 3” value was 1 (7) N (%) and the “Confusion grade 4” value was 0 (0) N (%). The “Confusion grade 5” value was 0 (0) N (%), the “Constipation grade 1” value was 1 (7) N (%) and the “Constipation grade 2” value was 0 (0) N (%). The “Constipation grade 3” value was 0 (0) N (%), the “Constipation grade 4” value was 0 (0) N (%) and the “Constipation grade 5” value was 0 (0) N (%). The “Cough grade 1” value was 1 (7) N (%), the “Cough grade 2” value was 0 (0) N (%) and the “Cough grade 3” value was 0 (0) N (%). For the same compound, the “Cough grade 4” value was 0 (0) N (%), the “Cough grade 5” value was 0 (0) N (%) and the “Delirium grade 1” value was 0 (0) N (%). The “Delirium grade 2” value was 0 (0) N (%), the “Delirium grade 3” value was 1 (7) N (%) and the “Delirium grade 4” value was 0 (0) N (%). The “Delirium grade 5” value was 0 (0) N (%), the “Diarrhea grade 1” value was 1 (7) N (%) and the “Diarrhea grade 2” value was 0 (0) N (%). The “Diarrhea grade 3” value was 0 (0) N (%), the “Diarrhea grade 4” value was 0 (0) N (%) and the “Diarrhea grade 5” value was 0 (0) N (%). The “Dysgeusia grade 1” value was 1 (7) N (%), the “Dysgeusia grade 2” value was 0 (0) N (%) and the “Dysgeusia grade 3” value was 0 (0) N (%). For the same compound, the “Dysgeusia grade 4” value was 0 (0) N (%), the “Dysgeusia grade 5” value was 0 (0) N (%) and the “Edema limbs grade 1” value was 1 (7) N (%). The “Edema limbs grade 2” value was 0 (0) N (%), the “Edema limbs grade 3” value was 0 (0) N (%) and the “Edema limbs grade 4” value was 0 (0) N (%). The “Edema limbs grade 5” value was 0 (0) N (%), the “Fall grade 1” value was 0 (0) N (%) and the “Fall grade 2” value was 1 (7) N (%). For the same compound, the “Fall grade 3” value was 0 (0) N (%), the “Fall grade 4” value was 0 (0) N (%) and the “Fall grade 5” value was 0 (0) N (%). The “Fatigue grade 1” value was 1 (7) N (%), the “Fatigue grade 2” value was 0 (0) N (%) and the “Fatigue grade 3” value was 1 (7) N (%). For the same compound, the “Fatigue grade 4” value was 0 (0) N (%), the “Fatigue grade 5” value was 0 (0) N (%) and the “Febrile neutropenia grade 1” value was 0 (0) N (%). For the same compound, the “Febrile neutropenia grade 2” value was 0 (0) N (%), the “Febrile neutropenia grade 3” value was 1 (7) N (%) and the “Febrile neutropenia grade 4” value was 0 (0) N (%). The “Febrile neutropenia grade 5” value was 0 (0) N (%), the “Fibrinogen decreased grade 1” value was 0 (0) N (%) and the “Fibrinogen decreased grade 2” value was 0 (0) N (%). The “Fibrinogen decreased grade 3” value was 1 (7) N (%), the “Fibrinogen decreased grade 4” value was 0 (0) N (%) and the “Fibrinogen decreased grade 5” value was 0 (0) N (%). For the same compound, the “Hyperglycemia grade 1” value was 0 (0) N (%), the “Hyperglycemia grade 2” value was 0 (0) N (%) and the “Hyperglycemia grade 3” value was 2 (13) N (%). For the same compound, the “Hyperglycemia grade 4” value was 0 (0) N (%), the “Hyperglycemia grade 5” value was 0 (0) N (%) and the “Hypertriglyceridemia grade 1” value was 1 (7) N (%). The “Hypertriglyceridemia grade 2” value was 0 (0) N (%), the “Hypertriglyceridemia grade 3” value was 0 (0) N (%) and the “Hypertriglyceridemia grade 4” value was 0 (0) N (%). For the same compound, the “Hypertriglyceridemia grade 5” value was 0 (0) N (%), the “Leukocytosis grade 1” value was 0 (0) N (%) and the “Leukocytosis grade 2” value was 0 (0) N (%). The “Leukocytosis grade 3” value was 1 (7) N (%), the “Leukocytosis grade 4” value was 0 (0) N (%) and the “Leukocytosis grade 5” value was 0 (0) N (%). The “Lymphocyte count decreased grade 1” value was 0 (0) N (%), the “Lymphocyte count decreased grade 2” value was 0 (0) N (%) and the “Lymphocyte count decreased grade 3” value was 2 (13) N (%). For the same compound, the “Lymphocyte count decreased grade 4” value was 0 (0) N (%), the “Lymphocyte count decreased grade 5” value was 0 (0) N (%) and the “Mucositis oral grade 1” value was 0 (0) N (%). The “Mucositis oral grade 2” value was 0 (0) N (%), the “Mucositis oral grade 3” value was 3 (20) N (%) and the “Mucositis oral grade 4” value was 0 (0) N (%). For the same compound, the “Mucositis oral grade 5” value was 0 (0) N (%), the “Neoplasms grade 1” value was 0 (0) N (%) and the “Neoplasms grade 2” value was 0 (0) N (%). For the same compound, the “Neoplasms grade 3” value was 1 (7) N (%), the “Neoplasms grade 4” value was 0 (0) N (%) and the “Neoplasms grade 5” value was 0 (0) N (%). The “Neutrophil count decreased grade 1” value was 0 (0) N (%), the “Neutrophil count decreased grade 2” value was 0 (0) N (%) and the “Neutrophil count decreased grade 3” value was 0 (0) N (%). The “Neutrophil count decreased grade 4” value was 1 (7) N (%), the “Neutrophil count decreased grade 5” value was 0 (0) N (%) and the “Oral pain grade 1” value was 1 (7) N (%). For the same compound, the “Oral pain grade 2” value was 0 (0) N (%), the “Oral pain grade 3” value was 0 (0) N (%) and the “Oral pain grade 4” value was 0 (0) N (%). The “Oral pain grade 5” value was 0 (0) N (%), the “Paresthesia grade 1” value was 1 (7) N (%) and the “Paresthesia grade 2” value was 0 (0) N (%). The “Paresthesia grade 3” value was 0 (0) N (%), the “Paresthesia grade 4” value was 0 (0) N (%) and the “Paresthesia grade 5” value was 0 (0) N (%). For the same compound, the “Pharyngolaryngeal pain grade 1” value was 0 (0) N (%), the “Pharyngolaryngeal pain grade 2” value was 1 (7) N (%) and the “Pharyngolaryngeal pain grade 3” value was 0 (0) N (%). The “Pharyngolaryngeal pain grade 4” value was 0 (0) N (%), the “Pharyngolaryngeal pain grade 5” value was 0 (0) N (%) and the “Platelet count decreased grade 1” value was 0 (0) N (%). For the same compound, the “Platelet count decreased grade 2” value was 0 (0) N (%), the “Platelet count decreased grade 3” value was 1 (7) N (%) and the “Platelet count decreased grade 4” value was 3 (20) N (%). The “Platelet count decreased grade 5” value was 0 (0) N (%), the “Pneumonitis grade 1” value was 0 (0) N (%) and the “Pneumonitis grade 2” value was 0 (0) N (%). The “Pneumonitis grade 3” value was 1 (7) N (%), the “Pneumonitis grade 4” value was 0 (0) N (%) and the “Pneumonitis grade 5” value was 0 (0) N (%). For the same compound, the “Pruritus grade 1” value was 1 (7) N (%), the “Pruritus grade 2” value was 0 (0) N (%) and the “Pruritus grade 3” value was 0 (0) N (%). The “Pruritus grade 4” value was 0 (0) N (%), the “Pruritus grade 5” value was 0 (0) N (%) and the “Resp, thoracic, mediastinal grade 1” value was 0 (0) N (%). The “Resp, thoracic, mediastinal grade 2” value was 0 (0) N (%), the “Resp, thoracic, mediastinal grade 3” value was 0 (0) N (%) and the “Resp, thoracic, mediastinal grade 4” value was 1 (7) N (%). The “Resp, thoracic, mediastinal grade 5” value was 0 (0) N (%), the “Vaginal inflammation grade 1” value was 0 (0) N (%) and the “Vaginal inflammation grade 2” value was 1 (7) N (%). The “Vaginal inflammation grade 3” value was 0 (0) N (%), the “Vaginal inflammation grade 4” value was 0 (0) N (%) and the “Vaginal inflammation grade 5” value was 0 (0) N (%). The “Vomiting grade 1” value was 1 (7) N (%), the “Vomiting grade 2” value was 0 (0) N (%) and the “Vomiting grade 3” value was 0 (0) N (%). The “Vomiting grade 4” value was 0 (0) N (%), the “Vomiting grade 5” value was 0 (0) N (%) and the “Wheezing grade 1” value was 0 (0) N (%). For the same compound, the “Wheezing grade 2” value was 1 (7) N (%), the “Wheezing grade 3” value was 0 (0) N (%) and the “Wheezing grade 4” value was 0 (0) N (%). For the same compound, the “Wheezing grade 5” value was 0 (0) N (%), the “White blood cell decreased grade 1” value was 0 (0) N (%) and the “White blood cell decreased grade 2” value was 0 (0) N (%). For the same compound, the “White blood cell decreased grade 3” value was 0 (0) N (%), the “White blood cell decreased grade 4” value was 2 (13) N (%) and the “White blood cell decreased grade 5” value was 0 (0) N (%).
